The structures appear in SMILES notation. ≈ marks a conversion by molar mass, not a printed value.

Series [1] has as its system methicilline resistant Staphylococcus aureus (MRSA) (a clinical isolate from the University of Antwerp). As to the kind of experiment: Microtitre plate assay, IC90 determination. The class given is cell-based. Particulars: 90% inhibitory concentration for bacterial growth; for IC90: Staphylococcus aureus, MRSA, read-out: IC90 STA RMETHIC. On the procedure:
(§1) The bacteria used in this study were grown overnight in flasks containing 100 ml Mueller-Hinton Broth (Becton Dickinson—cat. no. 275730) in sterile de-ionized water, with shaking, at 37° C. Stocks (0.5 ml/tube) were stored at −70° C. until use. Bacteria titrations were performed in microtiter plates and colony forming units (CFUs) were determined. In general, an inoculum level of approximately 100 CFUs was used for susceptibility testing.
(§2) Anti Bacterial Susceptibility Testing: IC90 Determination
(§3) Flat-bottom, sterile 96-well plastic microtiter plates were filled with 180 μl of sterile deionized water, supplemented with 0.25% BSA. Subsequently, stock solutions (7.8× final test concentration) of compounds were added in 45 μl volumes in column 2. Serial five-fold dilutions (45 μl in 180 μl) were made directly in the microtiter plates from column 2 to reach column 11. Untreated control samples with (column 1) and without (column 12) inoculum were included in each microtiter plate. Depending on the bacteria type, approximately 10 to 60 CFU per well of bacteria inoculum (100 TCID50), in a volume of 100 μl in 2.8× Mueller-Hinton broth medium, was added to the rows A to H, except column 12. The same volume of broth medium without inoculum was added to column 12 in row A to H. The cultures were incubated at 37° C. for 24 hours under a normal atmosphere (incubator with open air valve and continuous ventilation). At the end of incubation, one day after inoculation, the bacterial growth was quantitated fluorometrically. Therefore resazurin (0.6 mg/ml) was added in a volume of 20 μl to all wells 3 hours after inoculation, and the plates were re-incubated overnight. A change in colour from blue to pink indicated the growth of bacteria. The fluorescence was read in a computer-controlled fluorometer (Cytofluor Biosearch) at an excitation wavelength of 530 nm and an emission wavelength of 590 nm. The % growth inhibition achieved by the compounds was calculated according to standard methods. The IC90 (expressed in μg/ml) was defined as the 90% inhibitory concentration for bacterial growth.

Series [2] has as its system Listeria monocytogenes (ATCC49594). As to the kind of experiment: Microtitre plate assay, IC90 determination. The series is classed as cell-based. As to conditions: 90% inhibitory concentration for bacterial growth; for IC90: read-out: IC90 LMO 49594. The method, then:
as §1, §2, §3

Series [3] has as its system Enterococcus faecalis (ATCC14506). As to the kind of experiment: Microtitre plate assay, IC90 determination. The series is classed as cell-based. As to conditions: 90% inhibitory concentration for bacterial growth; for IC90: read-out: IC90 EFA 14506. The method, then:
as §1, §2, §3

The test system of series [4] is Pseudomonas aeruginosa (ATCC27853). Put plainly: Microtitre plate assay, IC90 determination. The series is classed as cell-based. Particulars: 90% inhibitory concentration for bacterial growth; for IC90: read-out: IC90 PAE 27853. The method, then:
as §1, §2, §3

Series [5] deals with Streptococcus pneumoniae (ATCC6305). Put plainly: Microtitre plate assay, IC90 determination. The series is classed as cell-based. As to conditions: 90% inhibitory concentration for bacterial growth; for IC90: read-out: IC90 SPN 6305. The method, then: as §1, §2, §3
Series [6] concerns Staphylococcus aureus (ATCC25923). Put plainly: Microtitre plate assay, IC90 determination. Particulars: for IC90 STA 25923: 90% inhibitory concentration for bacterial growth; for IC90: Staphylococcus aureus, ATCC25923, 90% inhibitory concentration for bacterial growth, read-out: IC90 STA 25923. The series is classed as cell-based. The method, then:
as §1, §2, §3

Series [7] concerns Streptococcus pyogens (ATCC8668). Put plainly: Microtitre plate assay, IC90 determination. The class given is cell-based. Particulars: for IC90: Streptococcus, ATCC8668, 90% inhibitory concentration for bacterial growth, read-out: IC90 SPY 8668; for IC90 SPY 8668: 90% inhibitory concentration for bacterial growth. On the procedure: as §1, §2, §3
Series [8] has as its system Bacillus subtilis (ATCC43639). Put plainly: Microtitre plate assay, IC90 determination. Particulars: 90% inhibitory concentration for bacterial growth; for IC90: read-out: IC90 BSU 43639. The class given is cell-based. The method, then:
as §1, §2, §3

Series [9] has as its system Staphylococcus aureus (ATCC29213). As to the kind of experiment: Microtitre plate assay, IC90 determination. The class given is cell-based. Particulars: 90% inhibitory concentration for bacterial growth, 37° C., resazurin fluorescence; for IC90: Staphylococcus aureus, ATCC29213, 24 h, read-out: IC90 STA 29213; for IC90 STA 29213: 24 hours. The method, then:
as §1, §2, §3
(Alamar Blue is a resazurin reagent that responds to reducing activity.)

For series [10], the system named is Enterococcus faecalis (ATCC29212). Put plainly: Microtitre plate assay, IC90 determination. The class given is cell-based. Particulars: 90% inhibitory concentration for bacterial growth; for IC90: read-out: IC90 EFA 29212. The method, then: as §1, §2, §3
For series [11], the system named is Streptococcus mutans (ATCC33402). As to the kind of experiment: Microtitre plate assay, IC90 determination. As to conditions: 90% inhibitory concentration for bacterial growth, read-out: IC90 SMU 33402. The class given is cell-based. The method, then: as §1, §2, §3

Broadly, the IC90 is the concentration at which the effect reaches the 90% level. For `CCc1cc2cc(C(c3ccccc3)C(O)(CCN(C)C)c3cccc4ccccc34)ccc2nc1Cl` (single isomer, unassigned) [Compound 6], in series [1], the “IC90 STA RMETHIC” value is 50.9 µg/mL (≈ 100 µM). Besides, the IC90 in [2] amounted to 12.8 µg/mL (≈ 25.1 µM); in series [3] it was 11.4 µg/mL (≈ 22.4 µM); in [4], 12.8 µg/mL (≈ 25.1 µM); in series [5], 12.8 µg/mL (≈ 25.1 µM); in series [7], 12.8 µg/mL (≈ 25.1 µM); in [8] it was 12.8 µg/mL (≈ 25.1 µM). Further, the IC90 in series [9] and in series [10] was 12.8 µg/mL (≈ 25.1 µM) throughout. Also, the “IC90 STA 25923” value in [6] worked out at 12.8 µg/mL (≈ 25.1 µM).

On to `CCc1cc2ccc(C(c3ccccc3)C(O)(CCN(C)C)c3cc(F)cc(F)c3)cc2nc1Cl` (single isomer, unassigned) [Compound 9], for which the “IC90 STA RMETHIC” value in series [1] worked out at 12.4 µg/mL (≈ 25 µM). In [2], the “IC90 LMO 49594” value is 12.4 µg/mL (≈ 25 µM). The IC90 came to 11.1 µg/mL (≈ 22.4 µM) in series [3] and 9.9 µg/mL (≈ 20 µM) in series [11]. In addition, in series [4], the “IC90 PAE 27853” value came to 9.9 µg/mL (≈ 20 µM). For the same molecule, the “IC90 SPN 6305” value in series [5] is 12.4 µg/mL (≈ 25 µM). Besides, the “IC90 STA 25923” value in series [6] was 12.4 µg/mL (≈ 25 µM). Also, the “IC90 SPY 8668” value in series [7] worked out at 9.9 µg/mL (≈ 20 µM). In addition, in series [8], the “IC90 BSU 43639” value was found to be 12.4 µg/mL (≈ 25 µM). For the same molecule, the “IC90 STA 29213” value in series [9] came to 11.1 µg/mL (≈ 22.4 µM). Also, the “IC90 EFA 29212” value in series [10] was 12.4 µg/mL (≈ 25 µM).

One may read the melting point as the temperature, or range, at which the solid turns liquid. As to `CN(C)CC(c1cccc2ccccc12)C(O)C(Cc1ccccc1)c1ccc2cc(Br)ccc2n1` (single isomer, unassigned) [Compound 2], the melting point is 143 °C. For the same molecule, in [1], the IC90 was found to be 13.6 µg/mL (≈ 25.2 µM). Besides, the IC90 in series [2] was found to be 10.8 µg/mL (≈ 20 µM). Further, the IC90 in [3] came to 12.1 µg/mL (≈ 22.4 µM). Besides, the IC90 in series [4] was determined as 10.8 µg/mL (≈ 20 µM). In addition, in series [5], the IC90 came to 13.6 µg/mL (≈ 25.2 µM). In series [6], the IC90 was 13.6 µg/mL (≈ 25.2 µM). In series [7], the IC90 was determined as 10.8 µg/mL (≈ 20 µM). In addition, the IC90 in series [8] amounted to 13.6 µg/mL (≈ 25.2 µM). In addition, the IC90 in series [11] came out at 10.8 µg/mL (≈ 20 µM). The IC90 in series [9] turned out to be 12.1 µg/mL (≈ 22.4 µM). Moreover, in series [10], the concentration for an effect of 90% (IC90) came out at 10.8 µg/mL (≈ 20 µM).

Consider `CCc1cc2cc(C(c3ccccc3)C(O)(CCN(C)C)c3cc(F)cc(F)c3)ccc2nc1Cl` (single isomer, unassigned) [Compound 11], for which the IC90 was 49.5 µg/mL (≈ 100 µM) in [1]; 7.9 µg/mL (≈ 16 µM) in series [2]; 12.4 µg/mL (≈ 25 µM) in series [4]; 12.4 µg/mL (≈ 25 µM) in series [5]; 49.5 µg/mL (≈ 100 µM) in [6]; 12.4 µg/mL (≈ 25 µM) in [7]. Further, the IC90 in series [8] was 39.3 µg/mL (≈ 79.4 µM); in series [9] it was 12.4 µg/mL (≈ 25 µM); in [10] it was 12.4 µg/mL (≈ 25 µM).

Take `CCc1cc2cc(C(c3ccccc3)C(O)(CCCCN(C)C)c3ccccc3)ccc2nc1OC` (single isomer, unassigned) [Compound 12]: the concentration for an effect of 90% (IC90) in series [5] and in series [9] was 1.53 µg/mL (≈ 3.17 µM) each time.

For `CN(C)CC(c1cccc(F)c1)C(O)C(Cc1ccccc1)c1ccc2cc(Br)ccc2n1` (single isomer, unassigned) [Compound 1], the melting point came to 136 °C. In [1], the IC90 is 12.8 µg/mL (≈ 25.2 µM). Further, in [2], the concentration for an effect of 90% (IC90) was 10.1 µg/mL (≈ 19.9 µM). For the same molecule, in series [4], the IC90 worked out at 12.8 µg/mL (≈ 25.2 µM). Besides, the IC90 in series [5] came to 12.8 µg/mL (≈ 25.2 µM). In addition, the IC90 in [6] was 12.8 µg/mL (≈ 25.2 µM). The IC90 in [7] was 10.1 µg/mL (≈ 19.9 µM). The IC90 in series [11] was determined as 10.1 µg/mL (≈ 19.9 µM). Moreover, the IC90 in [9] came out at 12.8 µg/mL (≈ 25.2 µM). In addition, in series [10], the IC90 came out at 12.8 µg/mL (≈ 25.2 µM).

Consider `CCc1cc2ccc(C(c3ccccc3)C(O)(CCN(C)C)c3cc(F)cc(F)c3)cc2nc1Cl` (single isomer, unassigned) [Compound 10], for which the IC90 in series [1] is 12.4 µg/mL (≈ 25 µM); in [2], 12.4 µg/mL (≈ 25 µM); in [4], 9.9 µg/mL (≈ 20 µM); in series [5], 12.4 µg/mL (≈ 25 µM); in series [6], 12.4 µg/mL (≈ 25 µM); in series [7] it was 12.4 µg/mL (≈ 25 µM). For the same molecule, the concentration for an effect of 90% (IC90) in [8], in series [9] and in series [10] was 12.4 µg/mL (≈ 25 µM) each time.

In the case of `CN(C)CC(c1cccc(F)c1)C(O)C(Cc1ccccc1)c1ccc2cc(Br)ccc2n1` (single isomer, unassigned) [Compound 4], the melting point is 179 °C.

Regarding `COc1nc2ccc(C(c3ccccc3)C(O)(CCCCN(C)C)c3ccccc3)cc2cc1C` (single isomer, unassigned) [Compound 13], the IC90 in series [5] and in series [9] was 7.43 µg/mL (≈ 15.9 µM) in each case.

As to `CCc1cc2cc(C(c3ccccc3)C(O)(CCN(C)C)c3cccc4ccccc34)ccc2nc1Cl` (single isomer, unassigned) [Compound 5], the “IC90 STA RMETHIC” value in series [1] was determined as 12.8 µg/mL (≈ 25.1 µM). In series [2], the “IC90 LMO 49594” value came out at 12.8 µg/mL (≈ 25.1 µM). In addition, the “IC90 EFA 14506” value in [3] was 11.4 µg/mL (≈ 22.4 µM). Besides, the “IC90 PAE 27853” value in [4] came out at 12.8 µg/mL (≈ 25.1 µM). In addition, the “IC90 SPN 6305” value in series [5] turned out to be 12.8 µg/mL (≈ 25.1 µM). Further, in [6], the “IC90 STA 25923” value was 5.1 µg/mL (≈ 10 µM). For the same molecule, in [7], the “IC90 SPY 8668” value was 12.8 µg/mL (≈ 25.1 µM). In addition, in [8], the “IC90 BSU 43639” value is 12.8 µg/mL (≈ 25.1 µM). Besides, the “IC90 STA 29213” value in series [9] came to 12.8 µg/mL (≈ 25.1 µM). Further, the “IC90 EFA 29212” value in series [10] came out at 12.8 µg/mL (≈ 25.1 µM).

Molecule `CN(C)CC(c1cccc2ccccc12)C(O)C(Cc1ccccc1)c1ccc2cc(Br)ccc2n1` (single isomer, unassigned) [Compound 3] gave a melting point of 69 °C.

The values above are taken from patent US8802671B2, “Quinoline derivatives as antibacterial agents” (Janssen Pharmaceutica NV, priority 2005, dated 2014).
